Positions count from the first letter of the chain named. pIC50: −log10 of the molar value.
Columns and labels:
ACVR1^R206H = molecular target: T1, ACVR1^R206H (Homo sapiens, UniProt Q04771, R206H); test: Promega NanoBRET live-cell target engagement, ACVR1 (R206H); assay type: cell-based; settings: in cellulo; NI = No inhibition at 40 μM
T1 sequence (Q04771 21-509 R206H): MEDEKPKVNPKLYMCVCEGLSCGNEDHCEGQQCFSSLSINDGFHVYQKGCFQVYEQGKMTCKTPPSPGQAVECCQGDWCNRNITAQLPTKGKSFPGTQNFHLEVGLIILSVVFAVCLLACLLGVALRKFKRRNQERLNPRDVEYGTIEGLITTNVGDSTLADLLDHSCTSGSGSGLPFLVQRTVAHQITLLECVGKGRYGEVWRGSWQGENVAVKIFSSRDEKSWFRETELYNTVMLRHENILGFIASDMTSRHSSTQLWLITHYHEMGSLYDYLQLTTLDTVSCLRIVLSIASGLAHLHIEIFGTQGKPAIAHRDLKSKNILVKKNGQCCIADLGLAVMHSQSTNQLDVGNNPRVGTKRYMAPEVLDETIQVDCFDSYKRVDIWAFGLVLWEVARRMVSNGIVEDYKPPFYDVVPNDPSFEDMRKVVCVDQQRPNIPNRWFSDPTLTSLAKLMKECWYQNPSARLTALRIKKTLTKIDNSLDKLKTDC
Source text: (§1) The Promega NanoBRET target engagement system involves cell-based competitive displacement of a fluorescent NanoBRET tracer bound reversibly to a NanoLuc fusion protein. Test compounds displace the tracer dependent on their affinity for the target and reduce […] the NanoBRET signal. […]

[1] = Metabolic stability in human liver microsomes; assay type: in vitro ADME; settings: some cells add hours in brackets
Source text: (§2) Exemplary compounds of the present disclosure have been evaluated for metabolic stability in mouse and human liver microsomes.

[2] = Metabolic stability in mouse liver microsomes; assay type: in vitro ADME; settings: some cells add hours in brackets
Source text: as §2

ACVR1^WT = molecular target: T2, ACVR1^WT (Homo sapiens, UniProt Q04771); test: Promega NanoBRET live-cell target engagement, ACVR1; assay type: cell-based; settings: in cellulo; NI = No inhibition at 40 μM
T2 sequence (Q04771 21-509): T1 sequence (Q04771 21-509 R206H) with H186R
Source text: as §1

[3] = tested on: BMP2-induced luciferase activity in 293T-BRE-reporter cells; test: BMP2-induced luciferase reporter activity in 293T-BRE reporter cells; assay type: cell-based; settings: 0.2, 1, 5, 25 μM, 30 min pre-treatment, 5 ng/ml BMP2, 6 hours
Method: BMP2-dependent luciferase reporter activation was quantified after 6 hours using the Promega BrightGLO luciferase system on a Tecan Infinity M1000 Pro plate reader.
FIG. 10 provides a bar graph depicting inhibition of BMP2-induced luciferase activity in 293T-BRE-reporter cells. Approximately 20,000 cells per well were plated in a 96-well plate and allowed to attach overnight. […] Cells were then stimulated with vehicle or 5 ng/ml BMP2 for 6 hours. Luciferase transactivation was assessed using the Promega BrightGLO luciferase system (Promega) and the signal was quantified using a plate reader (M1000 Pro).

[4] = tested on: pSMAD1/5 in WT fibroblasts (WT GM01652); test: BMP2-induced pSMAD1/5 Western blot in primary WT fibroblasts; assay type: cell-based, human; settings: 1, 5, 25 μM, 30 min pre-treatment, 5 ng/mL BMP2 45 min
Method: (§3) FIG. 11 depicts inhibition of phosphorylated SMAD1/5 (pSMAD1/5) in primary WT and FOP fibroblasts. […] Subsequently, the fibroblasts were treated with vehicle (i.e., DMSO) or 5 ng/mL BMP2 in the presence of the inhibitors for 45 minutes. Cell lysates were then probed with antibodies against pSMAD1/5, total SMAD5, total SMAD1, and GAPDH (i.e., loading control) using a Western blot.

[5] = tested on: pSMAD1/5 in FOP fibroblasts (FOP GM00513); test: BMP2-induced pSMAD1/5 Western blot in primary FOP fibroblasts; assay type: cell-based, human; settings: 1, 5, 25 μM, 30 min pre-treatment, 5 ng/mL BMP2 45 min
Method: as §3

ACVRL1 [6] = molecular target: T3, ACVRL1 (Homo sapiens, UniProt P37023); test: ThermoFisher (Lantha) kinase assay, inhibition of ACVRL1; assay type: biochemical; settings: in vitro, NA = not active at 1 μM
T3 construct: purchased ThermoFisher
T3 sequence (P37023 22-503): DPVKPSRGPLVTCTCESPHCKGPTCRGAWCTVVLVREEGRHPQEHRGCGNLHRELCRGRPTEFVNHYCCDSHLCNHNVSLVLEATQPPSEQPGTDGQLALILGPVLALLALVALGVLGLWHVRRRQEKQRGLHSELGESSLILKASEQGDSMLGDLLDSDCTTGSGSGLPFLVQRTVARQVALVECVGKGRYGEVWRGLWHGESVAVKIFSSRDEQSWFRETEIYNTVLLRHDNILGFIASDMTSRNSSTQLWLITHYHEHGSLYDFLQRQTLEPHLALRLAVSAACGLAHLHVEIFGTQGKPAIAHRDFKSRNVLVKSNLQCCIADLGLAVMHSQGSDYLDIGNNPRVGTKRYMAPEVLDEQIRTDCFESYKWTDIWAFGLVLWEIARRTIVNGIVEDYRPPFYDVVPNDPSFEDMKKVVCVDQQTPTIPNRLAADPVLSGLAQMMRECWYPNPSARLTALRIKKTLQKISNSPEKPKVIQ

ACVRL1 [7] = molecular target: T3, ACVRL1; test: Promega NanoBRET live-cell target engagement, ACVRL1; assay type: cell-based; settings: in cellulo; NI = No inhibition at 40 μM
Source text: The Promega NanoBRET target engagement system involves cell-based competitive displacement of a fluorescent NanoBRET tracer bound reversibly to a NanoLuc fusion protein. Test compounds displace the tracer dependent on their affinity for the target and reduce loss of the NanoBRET signal.
Further, HEK29T cells with stable expression of a BMP reporter element driving luciferase expression can be used to test inhibition of BMP-induced luciferase transactivation. […] Additionally, utilizing the HEPG2 cell system described herein, responsiveness to activin and induction of Hepcidin (HAMP) gene expression can be probed in the presence and absence of ACVR1 inhibitors, as well as the influence of tacrolimus on activin-induced hepcidin gene expression.
Thus, the in cellulo assays described herein comprise a luciferase reporter cell line system.

ACVR1 = molecular target: T4, ACVR1 (Homo sapiens, UniProt Q04771); test: ThermoFisher (Lantha) kinase assay, inhibition of ACVR1; assay type: biochemical; settings: ThermoFisher Assay, in vitro
T4 construct: purchased ThermoFisher
T4 sequence (Q04771 21-509): T1 sequence (Q04771 21-509 R206H) with H186R

Row | Compound | pIC50 (ACVR1^R206H) | Metabolism HLM (Min) [1] | Metabolism MLM (Min) [2] | pIC50 (ACVR1^WT) | Metabolism HLM [1] [min] | Metabolism MLM [2] [min] | inhibition of BMP2-induced luciferase activity [3] | suppression of BMP2-induced pSMAD1/5 activation, WT fibroblasts [4] | suppression of BMP2-induced pSMAD1/5 activation, FOP fibroblasts [5] | pIC50 (ACVRL1 [6]) | pIC50 (ACVRL1 [7]) | pIC50 (ACVR1)
1 | CNC(=O)[C@H]1C[C@H](n2c(-c3cc(OC)c(OC)c(OC)c3)nc3ccc(C(=O)NCCCN(C)C)cc32)C1 [CDD-2281, N-(3-(dimethylamino)propyl)-1-((1r,3r)-3-(methylcarbamoyl)cyclobutyl)-2-(3,4,5-trimethoxyphenyl)-1H-benzo[d]imidazole-6-carboxamide] | < 4.40 | 769.1 (12.81 h) Min | 807.1 (13.4 h) Min | < 4.40 |  |  |  |  |  |  |  | 
2 | CNC(=O)[C@H]1C[C@H](n2c(-c3cc(OC)c(OC)c(OC)c3)nc3ccc(C(=O)NCC4CCN(C)CC4)cc32)C1 [CDD-2282, 1-((1r,3r)-3-(methylcarbamoyl)cyclobutyl)-N-((1-methylpiperidin-4-yl)methyl)-2-(3,4,5-trimethoxyphenyl)-1H-benzo[d]imidazole-6-carboxamide] | < 4.40 | 978 (16.3 h) Min | 220.4 (3.67 h) Min | < 4.40 |  |  |  |  |  |  |  | 
3 | CNC(=O)[C@H]1C[C@H](n2c(-c3cccc(OC)c3)nc3ccc(C(=O)NCCCN4CCN(c5ccccc5)CC4)cc32)C1 [CDD-2313, 2-(3-methoxyphenyl)-1-((1r,3r)-3-(methylcarbamoyl)cyclobutyl)-N-(3-(4-phenylpiperazin-1-yl)propyl)-1H-benzo[d]imidazole-6-carboxamide] | 5.47 |  |  | 5.21 | 23 | 8.6 |  |  |  |  |  | 
4 | COc1cc(-c2nc3ccc(C(=O)NCCCN4CCN(c5ccccc5)CC4)cc3n2C2CCC2)cc(OC)c1OC [CDD-2315, 1-cyclobutyl-N-(3-(4-phenylpiperazin-1-yl)propyl)-2-(3,4,5-trimethoxyphenyl)-1H-benzo[d]imidazole-6-carboxamide] | 5.59 |  |  | 6.25 | 7.8 | 6.3 | Potent inhibition | suppressed | suppressed |  |  | 
5 | CNC(=O)[C@H]1C[C@H](n2c(-c3cc(F)cc(OC)c3)nc3ccc(C(=O)NCCCN4CCN(c5ccccc5)CC4)cc32)C1 [CDD-2340, 2-(3-fluoro-5-methoxyphenyl)-1-((1r,3r)-3-(methylcarbamoyl)cyclobutyl)-N-(3-(4-phenylpiperazin-1-yl)propyl)-1H-benzo[d]imidazole-6-carboxamide] | 5.04 |  |  | 5.28 | 24.4 | 7.1 | Potent inhibition | suppressed | suppressed |  |  | 
6 | CNC(=O)[C@H]1C[C@H](n2c(-c3ccc(OC)c(OC)c3)nc3ccc(C(=O)NCCCN4CCN(c5cccc(C)c5C)CC4)cc32)C1 [CDD-2421, 2-(3,4-dimethoxyphenyl)-N-(3-(4-(2,3-dimethylphenyl)piperazin-1-yl)propyl)-1-((1r,3r)-3-(methylcarbamoyl)cyclobutyl)-1H-benzo[d]imidazole-6-carboxamide] | 5.62 |  |  | 5.91 | 6 | 3.7 |  |  |  |  |  | 
7 | COc1cc(F)cc(-c2nc3ccc(C(=O)NCCCN(C)C)cc3n2C2CCC2)c1 [CDD-2617, 1-cyclobutyl-N-(3-(dimethylamino)propyl)-2-(3-fluoro-5-methoxyphenyl)-1H-benzo[d]imidazole-6-carboxamide] | 4.87 | 194 (3.2 h) Min | 78.5 (1.3 h) Min | 4.97 |  |  |  |  |  |  |  | 
8 | CNC(=O)[C@H]1C[C@H](n2c(-c3cc(OC)cc(OC)c3)nc3ccc(C(=O)NCCCN(C)C)cc32)C1 [CDD-2686, 2-(3,5-dimethoxyphenyl)-N-(3-(dimethylamino)propyl)-1-((1r,3r)-3-(methylcarbamoyl)cyclobutyl)-1H-benzo[d]imidazole-6-carboxamide] | 4.53 |  |  | 4.55 |  |  |  |  |  | 7.14 | < 4.40 | 7.46
9 | CNC(=O)[C@H]1C[C@H](n2c(-c3cc(OC)ccc3OC)nc3ccc(C(=O)NCCCN(C)C)cc32)C1 [CDD-2687, 2-(2,5-dimethoxyphenyl)-N-(3-(dimethylamino)propyl)-1-((1r,3r)-3-(methylcarbamoyl)cyclobutyl)-1H-benzo[d]imidazole-6-carboxamide] | < 4.40 |  |  | < 4.40 |  |  |  |  |  | 7.10 | < 4.40 | 7.60
10 | COc1cc(-c2nc3ccc(C(=O)NCCCN4CCN(c5ccccn5)CC4)cc3n2C2CCC2)cc(OC)c1OC [CDD-2787, 1-cyclobutyl-N-(3-(4-(pyridin-2-yl)piperazin-1-yl)propyl)-2-(3,4,5-trimethoxyphenyl)-1H-benzo[d]imidazole-6-carboxamide] | 6.15 |  |  | 6.33 | 9.8 | 3.3 | Potent inhibition | suppressed | suppressed |  |  | 
11 | COc1cc(-c2nc3ccc(C(=O)NCCCN4CCN(c5ccccc5)C(=O)C4)cc3n2C2CCC2)cc(OC)c1OC [CDD-2790, 1-cyclobutyl-N-(3-(3-oxo-4-phenylpiperazin-1-yl)propyl)-2-(3,4,5-trimethoxyphenyl)-1H-benzo[d]imidazole-6-carboxamide] | 5.64 |  |  | 5.74 | 9.0 | 6.1 |  |  |  |  |  | 
12 | COc1cc(-c2nc3ccc(C(=O)NCCCN4CCN(C5CCCCC5)CC4)cc3n2C2CCC2)cc(OC)c1OC [CDD-2792, 1-cyclobutyl-N-(3-(4-cyclohexylpiperazin-1-yl)propyl)-2-(3,4,5-trimethoxyphenyl)-1H-benzo[d]imidazole-6-carboxamide] | 6.07 |  |  | 6.45 | 38.3 | 10 |  |  |  |  |  | 
13 | N-(3-(4-benzoylpiperazin-1-yl)propyl)-1-cyclobutyl-2-(3,4,5-trimethoxyphenyl)-1H-benzo[d]imidazole-6-carboxamide [CDD-2791] | 5.58 |  |  | 5.97 | 15.4 | 2.8 |  |  |  | 7.84 | < 4.40 | 8.10

Reference: patent US20260217660A1, “INHIBITORS OF ACTIVIN RECEPTOR TYPE I (ACVRI) AND ACTIVIN RECEPTOR LIKE TYPE I (ACVRLI), AND METHODS USING SAME” (Baylor College of Medicine, priority 2023, published 2026)
